Earlier results in patent US8722114B2, “Compositions and methods for increasing human growth hormone levels” (Quality IP Holdings, LLC, priority 2012, dated 2014).

How the values were obtained:
[1] = subcutaneous injection of 0.06 IU, GH deficient subjects

Molecule	Elevation of serum hGH levels (hGH; 30 g, intravenous, in males)	Increase of hGH levels (hGH; intravenous infusion of 183 mg/kg body weight in females)	Mean levels of GH reached [1]
N=C(N)NCCC[C@H](N)C(=O)O [arginine]	8.6 fold	> 20 fold	
HGH: human growth hormone, injected subcutaneously in a cited study			0.4 ng/mL
